SMILES strings stand for the structures. Where two headings read alike, the source gives them in different places.

The subject of experiment [1] is cultured rat cortical neurons transfected with GFP alone. Briefly: Agonist-evoked NMDAR currents in transfected cultured cortical neurons. Conditions: 20 μM compound; NMDA and glycine pressure pulses.
The subject of experiment [2] is GluN2C-expressing cultured rat cortical neurons. The experiment is described as above. Conditions: 20 μM compound; NMDA and glycine pressure pulses.
For another experiment, the system named is GluN2C/2D over GluN2A/2B. Conditions: cited from earlier work.
The target in a further experiment is GluN1/GluN2D receptors (Rattus norvegicus, UniProt Q62645). Particulars: for agonist pEC50 at GluN1/GluN2D: mean (95% CI); for EC50: read-out: agonist EC50 at GluN1/GluN2D.
GluN1/GluN2D receptors, sequence (Q62645 28-1323, other chains not shown): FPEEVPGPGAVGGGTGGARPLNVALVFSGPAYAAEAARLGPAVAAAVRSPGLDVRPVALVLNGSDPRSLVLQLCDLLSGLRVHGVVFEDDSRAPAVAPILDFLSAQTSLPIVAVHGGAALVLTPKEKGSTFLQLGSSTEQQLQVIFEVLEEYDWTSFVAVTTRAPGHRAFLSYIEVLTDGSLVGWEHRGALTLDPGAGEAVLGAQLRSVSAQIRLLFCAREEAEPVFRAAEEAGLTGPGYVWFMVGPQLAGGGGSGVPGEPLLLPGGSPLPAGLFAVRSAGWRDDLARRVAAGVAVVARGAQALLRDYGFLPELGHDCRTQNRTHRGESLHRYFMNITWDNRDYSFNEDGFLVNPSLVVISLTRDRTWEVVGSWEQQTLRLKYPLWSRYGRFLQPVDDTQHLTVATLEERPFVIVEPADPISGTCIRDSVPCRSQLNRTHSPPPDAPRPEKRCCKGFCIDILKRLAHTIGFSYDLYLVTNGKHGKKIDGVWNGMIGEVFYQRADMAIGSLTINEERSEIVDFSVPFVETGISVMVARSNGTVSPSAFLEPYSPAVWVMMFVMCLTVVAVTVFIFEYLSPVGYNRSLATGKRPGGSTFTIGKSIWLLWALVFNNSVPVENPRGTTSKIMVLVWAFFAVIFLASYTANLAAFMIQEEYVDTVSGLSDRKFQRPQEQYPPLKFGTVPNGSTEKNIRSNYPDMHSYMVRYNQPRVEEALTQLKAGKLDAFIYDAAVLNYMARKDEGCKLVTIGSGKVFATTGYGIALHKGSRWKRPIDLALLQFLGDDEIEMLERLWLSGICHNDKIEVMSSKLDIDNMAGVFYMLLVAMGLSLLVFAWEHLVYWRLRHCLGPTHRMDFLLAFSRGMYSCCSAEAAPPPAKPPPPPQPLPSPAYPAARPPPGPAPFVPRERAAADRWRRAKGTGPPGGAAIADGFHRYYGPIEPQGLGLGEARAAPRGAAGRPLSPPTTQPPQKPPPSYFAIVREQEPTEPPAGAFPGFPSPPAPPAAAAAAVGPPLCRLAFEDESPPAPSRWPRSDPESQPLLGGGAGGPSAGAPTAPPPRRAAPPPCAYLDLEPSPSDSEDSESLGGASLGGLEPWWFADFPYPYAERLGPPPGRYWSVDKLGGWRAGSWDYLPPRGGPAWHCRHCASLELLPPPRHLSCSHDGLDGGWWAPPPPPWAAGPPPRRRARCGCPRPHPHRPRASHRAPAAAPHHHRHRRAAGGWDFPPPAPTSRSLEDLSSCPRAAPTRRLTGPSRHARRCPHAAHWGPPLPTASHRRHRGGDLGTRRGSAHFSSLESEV

With `COc1ccc(OCC2c3cc(OC)c(OC)cc3CCN2C(=O)c2cccc(Cl)c2)cc1` (centres unmarked) [CIQ], the “agonist-evoked response, % of control, neurons transfected with GFP alone” value in experiment [1] came out at 98 ± 1.8%. In addition, the “agonist-evoked response, % of control, GluN2C-expressing neurons” value in experiment [2] worked out at 145 ± 5.9%.
Regarding `Cc1ccc2[nH]c(=O)c(C3=NN(C(=O)CCC(=O)O)C(c4ccc(Br)cc4)C3)c(-c3ccccc3)c2c1` (centres unmarked) [DQP-1105], the “selectivity for GluN2C/2D over GluN2A/2B” value in the experiment with GluN2C/2D over GluN2A/2B is reported as “up to 50 fold”.
In the case of `COc1ccc2nc(/C=C/c3cccc([N+](=O)[O-])c3)n(-c3ccc(C(=O)O)cc3)c(=O)c2c1` [QNZ46], the “selectivity for GluN2C/2D over GluN2A/2B” value in the experiment on GluN2C/2D over GluN2A/2B is on record as “up to 50 fold”.
For `N[C@@H](CCC(=O)O)C(=O)O` [glutamate], the “agonist pEC50 at GluN1/GluN2D” value at GluN1/GluN2D receptors (absence of NAB-14) is −6.22 (−6.29, −6.14); at GluN1/GluN2D receptors (presence of 3 μM NAB-14), −6.15 (−6.36, −5.93). Moreover, the EC50 on GluN1/GluN2D receptors (absence of NAB-14) turned out to be 610 nM; on GluN1/GluN2D receptors (presence of 3 μM NAB-14), 710 nM.

The record behind these values is publication PMC5924706 (ACS chemical neuroscience, 2017).
